Assay results: patent publication US12501895B2, “Composition for cryopreservation of myocardial cells” (BEIJING BAHEAL WISART MEDICAL RESEARCH CO., LTD, priority 2020, dated 2025)

Test system: human cardiomyocytes
Assay: ex vivo culture of human cardiomyocytes for 7 days, rod-shaped rate (Example 4)
Assay type: cell-based
Conditions: 5-50 μM PAB versus 10 μM BLEB in M199 basal medium, cultured 7 days at 37° C., FIG. 4
Description: The purpose of this experiment was to investigate the effects of BLEB and PAB on cell survival rate and morphology during the ex vivo survival of cardiomyocytes, so as to predict the similarity of their roles during cryopreservation and resuscitation of cardiomyocytes.
10% fetal bovine serum, 100 U/ml penicillin and 100 μg/ml streptomycin were added to the M199 medium (purchased from Sigma Inc.), and the resulting medium was used as a basal medium. The experiments were divided into 6 groups, in which DMSO (as a control group), as well as 10 μM BLEB and 5 μM, 10 μM, 20 μM, and 50 μM PAB were added to the basal medium, respectively. The isolated human cardiomyocytes were divided into 6 groups, and the cells were plated on a 48-well cell culture plate coated with 200 μg/ml laminin in advance using 6 media, and the plate was placed and cultured in a cell incubator (with 5% CO2, and a relative saturated humidity of 95%) at 37° C. for 7 days.

## Cc1ccc2c(c1)C(=O)[C@]1(O)CCN(c3ccc(N)cc3)C1=N2 [PAB, para-aminoblebbistatin]
  rod-shaped rate of cardiomyocytes: close to or even better than the 10 μM BLEB group
